Laboratory results from US7288564B2, “Indole derivatives” (Glaxo Group Limited, priority 2000, dated 2007).

What follows are molecules tested against T1, human EP4 receptor (Homo sapiens, UniProt P35408) (assay: Human EP4 Scintillation Proximity Assay (radioligand binding)). Conditions: membranes of CHO cells expressing human EP4; 1.25 nM [3H]-prostaglandin E2; Cheng-Prusoff; read-out: pKi at EP4 receptors (converted).
Parameters: expressed in transfected cells; host or cells: CHO cells infected with Semliki Forest Virus (SFV-1) particles; membranes prepared
Method: Quantification of radioligand binding by scintillation proximity assay (SPA) is a long-established principle. Briefly, the affinity of compounds for a receptor is assessed by the specific competition between known quantities of radiolabelled ligand compound for that receptor. Increasing concentrations of compound reduce the amount of radiolabel that binds to the receptor. This gives rise to a diminishing scintillation signal from SPA beads coated with membranes that bear the receptor. The signal may be detected with a suitable scintillation counter and the data generated may be analysed with suitable curve-fitting software.
The human EP4 SPA assay (hereafter referred to as ‘the assay’) utilises membranes prepared from Chinese Hamster Ovary (CHO cells) infected with Semliki Forest Virus (SFV). Genetically engineered SFV-1 viral particles containing the genetic sequence of the human EP4 receptor were used to infect CHO cells resulting in expression of th receptor protein in cellular membranes.
Cells washed free of media are homogenised in a pH-buffered medium containing peptidase inhibitors. A suitable buffer is of the following composition: 50 mM HEPES, 1 mM EDTA, 25 μg/ml bacitracin, 100 μM leupeptin, 1 mM PMSF, 2 μM Pepstatin A, pH adjusted to 7.4 with KOH. Following removal of cell debris by a low-speed centrifugation, a pellet of membranes is prepared by a high-speed (48000 g) centrifugation of the resulting supernatant. Membrane suspensions such as that described may be stored at −80° C. until used.
For assay, membranes expressing human EP4 receptors are diluted in a pH-buffered medium and mixed with SPA beads coated with a suitable substance to facilitate the adhesion of membranes to the beads. The concentrations of membrane protein and SPA beads chosen should result in SPA binding signal of at least 300 corrected counts per minute (CCPM) when tritiated radioligand at a concentration close to its Kd (affinity value) is combined with the mixture. Non-specific binding (nsb) may be determined by competition between the radiolabelled ligand and a saturating concentration of unlabelled ligand. In order to quantify the affinity of EP4 receptor ligands, compounds are diluted in a stepwise manner across the wells of a 96-well plate. Radioligand, compound, and unlabelled ligand are then added to a 96-well plate suitable for the measurement of SPA binding signals prior to the addition of bead/membrane mixture to initiate the binding reaction. Equilibrium may be achieved by incubation at room temperature for 120 minutes prior to scintillation counting. The data so generated may be analysed by means of a computerised curve-fitting routine in order to quantify the concentration of compound that displaces 50% of the specific radioligand binding (IC50). The affinity (pKi) of the compound may be calculated from the IC50 by application of the Cheng-Prusoff correction. Suitable reagents and protocols are: reaction buffer containing 50 mM HEPES, 10 mM MgCl2, pH adjusted to 7.4 with KOH; SPA beads coated with wheatgerm agglutinin; 1.25 nM [^3H]-prostaglandin E2 as radioligand; 10 μM prostaglandin E2 as unlabelled ligand; a three-fold dilution series of compound starting at 10 μM and ending at 0.3 nM is adequate.

T1 sequence (P35408 whole entry): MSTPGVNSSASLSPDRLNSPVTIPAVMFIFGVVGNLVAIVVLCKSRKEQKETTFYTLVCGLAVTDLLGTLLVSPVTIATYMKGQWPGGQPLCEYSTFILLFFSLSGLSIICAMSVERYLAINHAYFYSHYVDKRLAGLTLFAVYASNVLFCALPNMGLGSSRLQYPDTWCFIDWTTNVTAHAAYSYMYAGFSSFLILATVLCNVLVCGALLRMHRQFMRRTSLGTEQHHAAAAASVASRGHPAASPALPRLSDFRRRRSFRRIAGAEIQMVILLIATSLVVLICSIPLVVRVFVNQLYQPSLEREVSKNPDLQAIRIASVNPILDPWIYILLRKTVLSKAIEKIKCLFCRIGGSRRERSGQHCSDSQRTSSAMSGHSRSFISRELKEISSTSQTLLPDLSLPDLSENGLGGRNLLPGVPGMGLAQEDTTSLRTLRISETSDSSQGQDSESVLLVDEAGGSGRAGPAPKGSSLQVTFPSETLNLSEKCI

Row | SMILES | Ki
1 | COc1ccc2[nH]c(C)c(CC(=O)Nc3cc(C)ccc3C(=O)O)c2c1 [Example 1, 2-{[(5-methoxy-2-methyl-1H-indol-3-yl)acetyl]amino}-4-methylbenzoic acid] | ≤ 0.1 µM
2 | Cc1ccc(C(=O)O)c(NC(=O)Cc2c[nH]c3ccccc23)c1 [Example 2, 2-[(1H-indol-3-ylacetyl)amino]-4-methylbenzoic acid] | ≤ 0.1 µM
3 | Cc1ccc(C(=O)O)c(NC(=O)Cc2c(C)[nH]c3ccccc23)c1 [Example 3, 4-methyl-2-{[(2-methyl-1H-indol-3-yl)acetyl]amino}benzoic acid] | ≤ 0.1 µM
4 | Cc1ccc(C(=O)O)c(NC(=O)Cc2c[nH]c3ccc(F)cc23)c1 [Example 4, 2-{[(5-fluoro-1H-indol-3-yl)acetyl]amino}-4-methylbenzoic acid] | ≤ 0.1 µM
5 | Cc1ccc(C(=O)O)c(NC(=O)Cc2c[nH]c3ccc(Br)cc23)c1 [Example 6, 2-{[(5-bromo-1H-indol-3-yl)acetyl]amino}-4-methylbenzoic acid] | ≤ 0.1 µM
6 | COc1ccc2[nH]cc(CC(=O)Nc3cc(C)ccc3C(=O)O)c2c1 [Example 7, 2-{[(5-methoxy-1H-indol-3-yl)acetyl]amino}-4-methylbenzoic acid] | ≤ 0.1 µM
7 | Cc1ccc(C(=O)O)c(NC(=O)Cc2c(-c3ccccc3)[nH]c3ccccc23)c1 [Example 9, 4-methyl-2-{[(2-phenyl-1H-indol-3-yl)acetyl]amino}benzoic acid] | ≤ 0.1 µM
8 | COc1ccc2[nH]c(C)c(CC(=O)Nc3cc(F)ccc3C(=O)O)c2c1 [Example 10, 4-fluoro-2-{[(5-methoxy-2-methyl-1H-indol-3-yl)acetyl]amino}benzoic acid] | ≤ 0.1 µM
9 | COc1ccc2[nH]c(C)c(CC(=O)Nc3cc(Cl)ccc3C(=O)O)c2c1 [Example 11, 4-chloro-2-{[(5-methoxy-2-methyl-1H-indol-3-yl)acetyl]amino}benzoic acid] | ≤ 0.1 µM
10 | COc1ccc2[nH]c(C)c(CC(=O)Nc3cc([N+](=O)[O-])ccc3C(=O)O)c2c1 [Example 12, 2-{[(5-methoxy-2-methyl-1H-indol-3-yl)acetyl]amino}-4-nitrobenzoic acid] | ≤ 0.1 µM
11 | COc1ccc2[nH]c(C)c(CC(=O)Nc3ccccc3C(=O)O)c2c1 [Example 13, 2-{[(5-methoxy-2-methyl-1H-indol-3-yl)acetyl]amino}benzoic acid] | ≤ 0.1 µM
12 | COc1ccc2[nH]c(C)c(CC(=O)Nc3cc(C(F)(F)F)ccc3C(=O)O)c2c1 [Example 17, 2-{[(5-methoxy-2-methyl-1H-indol-3-yl)acetyl]amino}-4-(trifluoromethyl)benzoic acid] | ≤ 0.1 µM
13 | COc1cc2[nH]c(C)c(CC(=O)Nc3cc(C)ccc3C(=O)O)c2cc1OC [Example 20, 2-{[(5,6-dimethoxy-2-methyl-1H-indol-3-yl)acetyl]amino}-4-methylbenzoic acid] | ≤ 0.1 µM
14 | Cc1ccc(C(=O)O)c(NC(=O)Cc2c(C)[nH]c3ccc(Cl)cc23)c1 [Example 21, 2-{[(5-chloro-2-methyl-1H-indol-3-yl)acetyl]amino}-4-methylbenzoic acid] | ≤ 0.1 µM
15 | CCc1ccc(C(=O)O)c(NC(=O)Cc2c(C)[nH]c3ccc(OC)cc23)c1 [Example 26, 4-ethyl-2-{[(5-methoxy-2-methyl-1H-indol-3-yl)acetyl]amino}benzoic acid] | ≤ 0.1 µM

The molecules below were run against T1, human EP4 receptor (assay: [125I]cAMP Scintillation Proximity Assay (cAMP assay), EP4 antagonism). Conditions: HEK-293 cells expressing recombinant human EP4; method of Arunlakshana and Schild; read-out: pKb at EP4 receptors (converted).
Assay type: cell-based
Parameters: host or cells: HEK-293 cells
Method: The cAMP assay utilises HEK-293 cells expressing the recombinant human EP4 receptor, obtained from Receptor Biology, Inc. Beltsville, Md., USA. The cells were cultured in Dulbecco's Modified Eagle Medium—HAM F12 mix (DMEM-F12), containing 10% heat inactivated-foetal bovine serum (FBS) and 2 mM L-glutamine. The cells were either passaged into fresh medium or used in an assay once 90% confluency as determined visually had been achieved.
The cells were harvested by treatment with Versene, re-suspended in fresh culture medium and plated out to yield approximately 10,000 cells per well of a 96-well plate for overnight culture in culture medium additionally supplemented with 3 μM indomethacin. For assay, the culture medium was replaced with assay medium (DMEM-F12 containing 300 μM isobutylmethylxanthine (IBMX) and 3 μM indomethacin) and incubated for 30 minutes. Following this, antagonist was then added at various concentrations such that an entire agonist concentration-effect curve could be obtained in the presence of a single concentration of the antagonist. […] The amount of cAMP in each well was then determined by [^125I]cAMP scintillation proximity assay using a proprietary kit, obtained from Amersham, Buckinghamshire, UK, and according to the manufacturer's instructions.
Data from cAMP assays were expressed as pmol cAMP per well. […]

Row | SMILES | Kb
16 | COc1ccc2[nH]c(C)c(CC(=O)Nc3cc(C)ccc3C(=O)O)c2c1 [Example 1, 2-{[(5-methoxy-2-methyl-1H-indol-3-yl)acetyl]amino}-4-methylbenzoic acid] | < 0.01 µM
